Entries after “also recorded” stand apart in the source; their conditions may differ.
Columns and labels:
[1] = system: CD4+CD25+CD127− Treg cells; assay: FACS analysis of CD4, NFκB and FoxP3 in expanded Tregs stimulated with PMA with or without Sia; assay type: cell-based, human
Excerpt: PBMCs were labelled with antibodies (Becton Dickinson®, UK) against CD3, CD4, CD25, CD45, CD45RA, CD127 and CD43 antigens according to the manufacturer's instructions to assess relative Treg numbers. When FoxP3 and nuclear factor kappa-light-chain-enhancer of activated B cells (NFκB) antibody labelling was required, cells were pretreated with a lymphocyte membrane permeabilising solution (BD FACS™ Permeabilizing solution 2; Becton Dickinson®, UK). For monocyte analysis, cells were firstly enriched using a pan monocyte isolation kit and benchtop magnetic cell sorting device (autoMACS Pro separator; Miltenyi Biotec®). Enriched monocytes were labelled with antibodies (Becton Dickinson®, UK) against CD14, CD16 and CD169 antigens. Cell populations were analysed using fluorescence-activated cell sorting (FACS) in a flow cytometer with sorting capability (FACSAria™ III; Becton Dickinson, UK) with appropriate flow cytometer software (BD FACSDiva™ software version 8.0.1; Becton Dickinson, UK). Negative controls including unlabelled cells and isotype matched control antibodies were used to determine gating strategies. The positivity of a specific cell surface marker in labelled samples compared to the negative control was analysed as a percentage of the parent population. The median fluorescence intensity (MFI), indicating cell surface density of a specific marker, was also noted for cell populations. Mann Whitney tests were used to assess the statistical significance of differences between sample groups and graphs depict median values with error bars representing the interquartile range.
CD4^+CD25^+CD127^− Treg cells were sorted by FACS into phosphate buffered saline (PBS) containing 20% AB serum (Sigma-Aldrich®, UK), then washed and resuspended in serum-free cell culture medium (TexsMACS™ medium; Miltenyi Biotec®, UK), supplemented with 5% AB serum (Sigma-Aldrich®, UK), 1% Penicillin-Streptomycin (Gibco®, Ireland) and human IL-2 (Miltenyi Biotec®, UK). Trypan blue (Sigma-Aldrich®, UK) was used to ensure cell viability after sorting was >90-95%. A human Treg expansion kit (Miltenyi Biotec, UK) was used to induce Treg proliferation in order to expand the population to sufficient cell numbers for experiments. Following 14 days of expansion, Tregs were stimulated with 10 ng/ml phorbol 12-myristate 13-acetate (PMA) (Sigma-Aldrich®, UK) and 500 ng/ml ionomycin (10) (Invitrogen®) for 24 hours. During the same 24-hour stimulation, Tregs were incubated with or without 10 mM sialic acid (Sia) (Sigma-Aldrich®, UK). […] Cell culture conditioned media was retained and analysed for secreted cytokine levels by enzyme-linked immunosorbent assay (ELISA), described below. […]

[2] = system: CD4+CD25+CD127− Treg cells; assay: ELISA of secreted cytokines (TNFα, IL-10, IFNγ) in conditioned media of Treg cultures; assay type: cell-based, human; details: PMA relative to controls
Excerpt: CD4^+CD25^+CD127^− Treg cells were sorted by FACS into phosphate buffered saline (PBS) containing 20% AB serum (Sigma-Aldrich®, UK), then washed and resuspended in serum-free cell culture medium (TexsMACS™ medium; Miltenyi Biotec®, UK), supplemented with 5% AB serum (Sigma-Aldrich®, UK), 1% Penicillin-Streptomycin (Gibco®, Ireland) and human IL-2 (Miltenyi Biotec®, UK). Trypan blue (Sigma-Aldrich®, UK) was used to ensure cell viability after sorting was >90-95%. A human Treg expansion kit (Miltenyi Biotec, UK) was used to induce Treg proliferation in order to expand the population to sufficient cell numbers for experiments. Following 14 days of expansion, Tregs were stimulated with 10 ng/ml phorbol 12-myristate 13-acetate (PMA) (Sigma-Aldrich®, UK) and 500 ng/ml ionomycin (10) (Invitrogen®) for 24 hours. During the same 24-hour stimulation, Tregs were incubated with or without 10 mM sialic acid (Sia) (Sigma-Aldrich®, UK). At baseline, 24 hr and 48 hr time points (Day 0, Day 1 and Day 2), cells were removed from culture and labelled prior to FACS analysis of extracellular markers CD4, CD25, CD127 and CD43, and intracellular markers NFκB and FoxP3. Cell culture conditioned media was retained and analysed for secreted cytokine levels by enzyme-linked immunosorbent assay (ELISA), described below. A preliminary experiment included a Day 2 time-point, however latter experiments were concluded at the Day 1 time-point as this was sufficient to observe Sia treatment effects. […]
Following cell culture experiments, conditioned media were analysed to quantify TNFα, IL-10 and IFN-γ by ELISA using appropriate ELISA reagent kits (DuoSet® ELISA development kits; R&D Systems®, UK) according to the manufacturer's instructions. The optical density (OD) was determined using a spectrophotometer (Epoch™ microplate spectrophotometer; BioTek® Ltd, UK) with appropriate software (Gen5™; BioTek® Ltd, UK). The plate was read at a wavelength of 450 nm and wavelength correction of OD at 540 nm used. […]

Structure (SMILES) | effect on NFκB Tregs ([1]; 10 mM Sia added to PMA-stimulated Tregs, after 2 days) | CD4 cell-surface expression (percentage of CD4 positivity) ([1]; 10 ng/ml PMA + 500 ng/ml ionomycin, compared to CTL cells without stimulation) | percentage of cells with intracellular expression of FoxP3 ([1]; PMA stimulation, both CD43+ and CD43− Tregs, each time point, p<0.01) | percentage of cells with intracellular expression of NFκB ([1]; PMA stimulation, both CD43+ and CD43− Tregs, each time point, p<0.05) | IFNγ levels secreted into media ([2]; Day 1, p<0.01) | levels of IL-10 secreted into media ([2]; Day 1 and Day 2, p<0.05) | levels of TNFα secreted into media ([2]; Day 1 and Day 2, p<0.05)
CC(=O)N[C@H]1[C@H]([C@H](O)[C@H](O)CO)OC(O)(C(=O)O)C[C@@H]1O (stereo partly shown) [Sia, sialic acid] | no significant effect | – | – | – | – | – | –
CCCCCCCCCCCCCC(=O)O[C@@H]1[C@@H](C)[C@@]2(O)[C@@H](C=C(CO)C[C@]3(O)C(=O)C(C)=C[C@@H]23)[C@@H]2C(C)(C)[C@]12OC(C)=O [PMA, phorbol 12-myristate 13-acetate] | – | reduced; also recorded: reduction | increased | increased | significantly higher | significantly increased | significantly increased
